Marks after values point to notes of the source that are not given here.
Assay: Measurement of LogP values by HPLC on reversed phase columns (EEC directive 79/831 Annex V.A8)
Assay type: physicochemical
Details: not given
Procedure: [table] If more than one Log P value is available within the same method, all the values are given and separated by “+”. Calibration was done with straight-chain alkan2-ones (with 3 to 16 carbon atoms) with known Log P values (measurement of Log P values using retention times with linear interpolation between successive alkanones). Lambda-max-values were determined using UV-spectra from 200 nm to 400 nm and the peak values of the chromatographic signals.

Compound	LogP
CC(=O)c1ccc(Oc2ccc(F)cc2)nc1Cl [V.12]	3.11^[a]
CC(O)(Cn1cncn1)c1ccc(Oc2ccc(Cl)cc2F)nc1C(F)(F)F (stereo not drawn) [I.66]	2.80^[a]
O=C(Cn1cncn1)c1cnc(Oc2ccc(Cl)cc2F)cc1C(F)(F)F [VII.30]	3.06^[a]
C=CC(O)(Cn1cncn1)c1cnc(Oc2ccc(C(F)(F)F)cc2)cc1C(F)(F)F (stereo not drawn) [I.69]	3.33^[a]
O=C(CBr)c1ccc(Oc2ccc(Br)cc2)nc1C(F)(F)F [VI.18]	4.23^[a]
OC(Cn1cncn1)c1cnc(Oc2ccc(Cl)cc2)cc1C(F)F (stereo not drawn) [I.94]	2.13^[a]
OC(Cn1cncn1)c1ccc(Oc2ccccc2F)nc1Cl (racemic) [I.19]	2.08^[a]
O=C(CBr)c1cnc(Oc2ccc(C(F)F)cc2)cc1C(F)(F)F [VI.27]	3.99^[a]
O=C(Cn1cncn1)c1ccc(Oc2ccccc2F)nc1Cl [VII.14]	2.28^[a]
OC(Cn1cncn1)(c1ccc(Oc2ccc(Cl)cc2)nc1C(F)(F)F)C1CC1 (stereo not drawn) [I.80]	3.32^[a]
CC(O)(Cn1cncn1)c1cnc(Oc2ccc(Br)cc2)cc1C(F)(F)F (stereo not drawn) [I.49]	2.96^[a]
O=C(c1ccc(Oc2ccc(C(F)(F)F)cc2)nc1C(F)(F)F)C1CC1 [V.39]	4.37^[a]
O=C(CCl)c1ccc(Oc2ccc(F)cc2)nc1Cl [VI.09]	3.39^[a]
O=C(CCl)c1cnc(Oc2ccc(C(F)F)cc2)cc1C(F)(F)F [VI.26]	3.76^[a]
O=C(Cn1cncn1)c1cnc(Oc2ccc(OC(F)(F)F)cc2)cc1C(F)(F)F [VII.26]	3.27^[a]
CC(=O)c1ccc(Oc2ccc(C(F)(F)F)cc2)nc1C(F)(F)F [V.17]	3.96^[a]
OC(Cn1cncn1)c1cnc(Oc2ccccc2)cc1Cl (racemic) [I.21]	1.92^[a]
O=C(CCl)c1ccc(Oc2ccc(OC(F)(F)F)cc2)nc1C(F)(F)F [VI.33]	4.07^[a]
O=C(Cn1cncn1)c1ccc(Oc2ccc(S(F)(F)(F)(F)F)cc2)nc1Cl [VII.20]	3.11^[a]
O=C(CCl)c1cnc(Oc2ccc(Cl)cc2F)cc1C(F)(F)F [VI.25]	4.15^[a]
CC(O)(Cn1cncn1)c1ccc(Oc2ccc(Br)cc2)nc1C(F)(F)F (single isomer, unassigned) [I.102]	2.94^[a]
O=C(CCl)c1ccc(Oc2ccc(Br)cc2)nc1C(F)(F)F [VI.19]	4.11^[a]

Compound	LogP
CC1(c2ccc(Oc3ccc(Cl)cc3)nc2C(F)(F)F)CO1 (stereo not drawn) [IX.06]	4.44^[a]
CC(O)c1ccc(Oc2ccc(C(O)Cn3cncn3)c(Cl)n2)cc1 (mixture of isomers) [I.24]	1.48^[a]
O=C(Cn1cncn1)c1cnc(Oc2ccc(Cl)cc2)cc1C(F)F [VII.36]	2.51^[a]
OC(Cn1cncn1)c1cnc(Oc2ccc(C(F)F)cc2)cc1C(F)(F)F (stereo not drawn) [I.55]	2.55^[a]
OC(Cn1cncn1)c1cnc(Oc2ccc(OC(F)(F)F)cc2)cc1C(F)(F)F (stereo not drawn) [I.43]	3.00^[a]
CC(=O)c1ccc(Oc2ccc(Br)cc2)nc1C(F)(F)F [V.20]	3.85^[a]
O=C(CCl)c1ccc(Oc2ccc(Cl)cc2)nc1C(F)F [VI.11]	3.62^[a]
O=C(Cn1cncn1)c1cnc(Oc2ccc(Cl)cc2)cc1Cl [VII.38]	2.60^[a]
CC(=O)c1ccc(Oc2ccc(Cl)cc2)nc1F [V.24]	3.51^[a]
OC(Cn1cncn1)c1cnc(Oc2ccc(C(F)(F)F)cc2)cc1C(F)(F)F (single isomer, unassigned) [I.92]	2.86^[a]
CC(O)(Cn1cncn1)c1ccc(Oc2ccc(Cl)cc2)nc1Cl (single isomer, unassigned) [I.52]	2.62^[a]
OC(Cn1cncn1)c1ncc(Oc2ccccc2)cc1Cl (racemic) [I.22]	2.01^[a]
CC(O)(Cn1cncn1)c1ccc(Oc2ccc(F)cc2)nc1Cl (racemic) [I.27]	2.28^[a]
CC(=O)c1ccc(Oc2ccc(C(F)F)cc2)nc1C(F)(F)F [V.32]	3.26^[a]
O=C(Cn1cncn1)c1cnc(Oc2ccccc2)cc1Cl [VII.05]	2.20^[a]
COc1ccc(Oc2ccc(C(=O)CCl)c(Cl)n2)c(Cl)c1 [VI.13]	3.71^[a]
OC(Cn1cncn1)c1ccc(Oc2ccc(F)cc2F)nc1Cl (racemic) [I.18]	2.18^[a]
O=C(Cn1cncn1)c1cnc(Oc2ccc(C(F)F)cc2)cc1C(F)(F)F [VII.29]	2.80^[a]
OC(Cn1cncn1)c1ccc(Oc2ccc(OC(F)(F)F)c(Cl)c2)nc1Cl (racemic) [I.11]	3.11^[a]
FC(F)(F)c1nc(Oc2ccc(Br)cc2)ccc1C1(C2CC2)CO1 (stereo not drawn) [IX.08]	5.11^[a]
COc1ccc(Oc2ccc(C(C)=O)c(Cl)n2)c(Cl)c1 [V.29]	3.44^[a]
CC(=O)c1cnc(Oc2ccc(Cl)cc2)cc1C(F)F [V.37]	3.57^[a]

Compound	LogP
O=C(Cn1cncn1)c1ccc(Oc2ccc(F)cc2F)nc1Cl [VII.13]	2.41^[a]
CC(=O)c1ccc(Oc2ccc(Cl)cc2)nc1Cl [V.26]	3.45^[a]
OC(Cn1cncn1)c1ccc(Oc2cc(F)c(F)c(F)c2)nc1Cl (racemic) [I.20]	1.65^[a]
CC(O)(Cn1cncn1)c1cnc(Oc2ccc(Cl)cc2)cc1Cl (single isomer, unassigned) [I.54]	2.53^[a]
O=Cc1ccc(Oc2ccc(C(=O)C3CC3)c(C(F)(F)F)n2)cc1 [V.42]	3.21^[a]
COc1ccc(Oc2ccc(C(=O)Cn3cncn3)c(Cl)n2)c(Cl)c1 [VII.19]	2.58^[a]
OC(Cn1cncn1)c1ccc(Oc2ccc(Cl)cc2)nc1F (stereo not drawn) [I.41]	2.23^[a]
CC(=O)c1cnc(Oc2ccc(C(F)F)cc2)cc1C(F)(F)F [V.04]	3.62^[a]
CCC(O)(Cn1cncn1)c1cnc(Oc2ccc(C(F)(F)F)cc2)cc1C(F)(F)F (stereo not drawn) [I.76]	3.52^[a]
COc1ccc(Oc2ccc(C(C)(O)Cn3cncn3)c(Cl)n2)c(Cl)c1 (racemic) [I.31]	2.56^[a]
O=C(Cn1cncn1)c1ccc(Oc2ccc(Br)cc2)nc1C(F)F [VII.35]	2.68^[a]
CC(O)(Cn1cncn1)c1ccc(Oc2ccc(S(F)(F)(F)(F)F)cc2)nc1C(F)(F)F (stereo not drawn) [I.62]	3.25^[a]
OC(Cn1cncn1)c1cnc(Oc2ccc(C(F)(F)F)cc2)cc1Cl (stereo not drawn) [I.88]	2.64^[a]
CC(=O)c1ccc(Oc2ccc(S(F)(F)(F)(F)F)cc2)nc1C(F)(F)F [V.16]	4.09^[a]
CC(C)c1ccc(Oc2ccc(C(C)(O)Cn3cncn3)c(C(F)(F)F)n2)cc1 (stereo not drawn) [I.75]	3.35^[a]
CC(=O)c1cnc(Oc2ccc(Br)cc2)cc1C(F)F [V.36]	3.74^[a]
O=C(Cn1cncn1)c1ccc(Oc2ccc(Cl)cc2)nc1F [VII.25]	2.50^[a]
O=C(CCl)c1ncc(Oc2ccc(Cl)cc2)nc1Cl [VI.10]	3.78^[a]
O=C(CCl)c1cnc(Oc2ccc(OC(F)(F)F)cc2)cc1C(F)(F)F [VI.21]	4.37^[a]
CC(O)(Cn1cncn1)c1cnc(Oc2ccc(C(F)(F)F)cc2)cc1C(F)(F)F (stereo not drawn) [I.50]	3.11^[a]
CC(O)(Cn1cncn1)c1cnc(Oc2ccc(Cl)cc2F)cc1C(F)(F)F (stereo not drawn) [I.58]	3.02^[a]
O=C(CBr)c1cnc(Oc2ccc(Br)cc2)cc1C(F)(F)F [VI.15]	4.34^[a]

Compound	LogP
OC(Cn1cncn1)c1ccc(Oc2ccc(OC(F)(F)F)cc2)nc1C(F)(F)F (stereo not drawn) [I.79]	2.89^[a]
CC(O)(Cn1cncn1)c1ccc(Oc2ccc(Cl)c(Cl)c2)nc1Cl (racemic) [I.32]	3.09^[a]
CC(O)(Cn1cncn1)c1ccc(Oc2ccc(Cl)cc2)nc1C(F)(F)F (stereo not drawn) [I.96]	2.68^[a]
O=C(CCl)c1cnc(Oc2ccc(Cl)cc2)cc1Cl [VI.06]	3.77^[a]
O=C(CBr)c1ccc(Oc2ccc(C(F)F)cc2)nc1Cl [VI.17]	3.57^[a]
O=C(CCl)c1ccc(Oc2ccccc2)nc1Cl [VI.03]	3.23^[a]
CC(=O)c1cnc(Oc2ccc(Cl)cc2F)cc1C(F)(F)F [V.07]	4.09^[a]
CC(O)(Cn1cncn1)c1ccc(Oc2ccc(Br)cc2)nc1C(F)(F)F (racemic) [I.59]	2.94^[a]
O=C(CBr)c1ccc(Oc2c(F)cc(Cl)cc2F)nc1C(F)(F)F [VI.32]	4.18^[a]
OC(Cn1cncn1)c1ccc(Oc2ccc(C(F)(F)F)cc2)nc1C(F)(F)F (single isomer, unassigned) [I.72]	2.86^[a]
CC(O)(Cn1cncn1)c1cnc(Oc2ccc(OC(F)(F)F)cc2)cc1C(F)(F)F (stereo not drawn) [I.44]	3.23^[a]
CC(=O)c1ncc(Oc2ccc(Cl)cc2)nc1Oc1ccc(Cl)cc1 [V.33]	4.36^[a]
CC(O)(Cn1cncn1)c1ccc(Oc2ccc(Cl)cc2)nc1Cl (racemic) [I.09]	2.66^[a]
CC(O)(Cn1cncn1)c1ccc(Oc2ccc(Cl)cc2)nc1OC(F)(F)F (racemic) [I.33]	3.29^[a]
O=C(CBr)c1ccc(Oc2ccc(Cl)c(Cl)c2)nc1Cl [VI.07]	4.58^[a]
CC(O)(Cn1cncn1)c1cnc(Oc2ccc(Cl)cc2)cc1C(F)(F)F (single isomer, unassigned) [I.46]	2.93^[a]
CC(O)(Cn1cncn1)c1ccc(Oc2ccc(Cl)cc2)nc1Cl (single isomer, unassigned) [I.51]	2.62^[a]
O=C(Cn1cncn1)c1ncc(Oc2ccc(Cl)cc2)nc1Cl [VII.23]	2.54^[a]
OC(Cn1cncn1)c1ccc(Oc2ccc(Cl)cc2)nc1OC(F)(F)F (racemic) [I.26]	2.92^[a]

Same assay, conditions: reversed phase HPLC column, method [a]: LC-UV, acidic range, 0.1% formic acid in water and acetonitrile as eluent

Compound	chromatographic logP
O=C(c1ccc(Oc2ccc(Cl)cc2)nc1C(F)(F)F)C1CC1 [V.41, [6-(4-chlorophenoxy)-2-(trifluoromethyl)-3-pyridyl]-cyclopropyl-methanone]	4.17

Same assay, conditions: reversed phase HPLC column, method [a]; compounds of formula (VI), Table 3

Compound	chromatographic logP
O=C(CCl)c1ccc(Oc2ccc(Cl)cc2)nc1C(F)(F)F [VI.01, 2-chloro-1-[6-(4-chlorophenoxy)-2-(trifluoromethyl)-3-pyridyl]ethanone]	4.01

Source: patent publication US10485236B2, “Triazole derivatives, intermediates thereof and their use as fungicides” (Bayer CropScience Aktiengesellschaft, priority 2015, dated 2019)
